# Source: patent publication US5250673A, “2'-deoxy-5-substituted uridine derivatives” (priority 1983, dated 1993)
# Read-outs that look alike come from different tables or passages of the source.
# Tests used:
# Format in all cases: in vivo, mouse
# [1] = toxicity value: 50% inhibition of weight increase of test animal (Sarcoma 180 tumor-transplanted mice); conditions: mouse, sarcoma 180 bearing mice, oral, once a day, 7 days, male ICR/JCL mice, read-out: Toxicity value (B) Administration amount of test compound at which weight increase of test animal is inhibited by 50% compared with that of control group
# Protocol: (b) Method for determining toxicity value
# Hitherto, toxicity values of anti-malignant tumor agents have been calculated on the bases of LD50 of test animals, in most cases. […] Therefore, in the present test, accumulated toxicity, which well represents the toxicity of anti-malignant tumor agents, was focused on and, as an indication for sensitive detection of the accumulated toxicity, inhibition of weight increase of test animal was measured. That is, when antitumor activity value was determined in the above item (a), the weight of each mouse of each test groups for each test compounds was measured daily from the day of tumor transplanting, immediately before administration.
# On the day of tumor weight measurement, the average net weight increase of each mouse of each test groups for each test compounds from the day of tumor transplanting was measured. These increases were compared with the average net weight increase of control group and the ratio of net weight increase of each test groups of each test compounds to that of control group was calculated. From these calculations, there was obtained an addition amount of each test compound at which weight increase is inhibited by 50% compared with that of control group, and that amount was taken as a toxicity value of each compound.
# [2] = tested on: Sarcoma 180; assay: antitumor activity: 50% inhibition of tumor enhancement, Sarcoma 180 transplanted in mice; conditions: oral, once a day, 7 days, male ICR/JCL mice, tumor weight day 10
# Protocol: (a) Method for determining of antitumor activity value
# 5×10^6 Cells of mouse-transplantable tumor Sarcoma 180 were transplanted to each male ICR/JCL-strain mouse (having a weight of 27 to 30 g) subcutaneously at the back. Each test compound dissolved or suspended in 0.1% Tween 80^(*) - 0.5% CMC solution was orally administered to various test groups each consisting of 7 mice once a day for 7 consecutive days from the next day of tumor transplanting, in an amount of 1.0 ml of solution or suspension per 100 g weight per day. As to a control group, the same Tween 80-CMC solution containing no test compound was orally administered once a day for 7 consecutive days in an amount of 1.0 ml per 100 g weight per day. (*) (A trademark for a series of surface which is a polyoxyethylene derivative of fatty acid partial ester of sorbitol anhydride, manufactured by I.C.I. U.S., Inc.)
# On the tenth day from the tumor transplanting, an average tumor weight for each administration level of each test compound was determined. This weight was compared with an average tumor weight in control group, and the ratio of tumor enhancement inhibition at each administration level of each test compound compared with control group was calculated. From these calculations, the administration level of each test compound at which the ratio of tumor enhancement inhibition become 50% was obtained and the level (amount) was taken as the antitumor activity value of each compound.
# [3] = tested on: Sarcoma 180; assay: calculation of therapeutic index (B)/(A), Sarcoma 180 mice; parameters: key: C = toxicity value (B) / antitumor activity value (A); conditions: oral, once a day, 7 days
# Protocol: (c) Calculation of therapeutic index
# By the use of the antitumor activity value (hereinafter referred to as A) and the toxicity value (hereinafter referred to as B) of each compound, which were obtained in the above items (a) and (b), respectively, therapeutic index (hereinafter referred to as C) was calculated in accordance with the following equation.
# Therapeutic index (C)=^(B)(A)
Compound,TD50 at 240 h ([1]; Table 1-a) [mg/kg],Antitumor activity value (A) Administration amount of test compound at which tumor enhancement is inhibited by 50% compared with that of control group ([2]; Table 1-a) [mg/kg/day],Therapeutic index (C) = (B)/(A) ([3]; Table 1-a),TD50 at 240 h ([1]; Table 1-b) [mg/kg],Antitumor activity value (A) Administration amount of test compound at which tumor enhancement is inhibited by 50% compared with that of control group ([2]; Table 1-b) [mg/kg/day],Therapeutic index (C) = (B)/(A) ([3]; Table 1-b),other results
O=c1[nH]c(=O)n([C@H]2C[C@H](O)[C@@H](COCc3ccc(Cl)cc3)O2)cc1C(F)(F)F [Compound 11],22,18,1.22,–,–,–,–
O=c1[nH]c(=O)n([C@H]2C[C@H](OCc3ccc(Cl)cc3)[C@@H](CO)O2)cc1C(F)(F)F [Compound 12],17,12,1.42,–,–,–,–
"Cc1ccccc1COC[C@H]1O[C@@H](n2cc(C(F)(F)F)c(=O)[nH]c2=O)C[C@@H]1O [Compound 13, 2'-deoxy-5'-O-(2-methylbenzyl)-5-trifluoromethyluridine]",65,48,1.35,–,–,–,–
Cc1ccccc1CO[C@H]1C[C@H](n2cc(C(F)(F)F)c(=O)[nH]c2=O)O[C@@H]1CO [Compound 14],57,40,1.43,–,–,–,–
"Cc1cccc(COC[C@H]2O[C@@H](n3cc(C(F)(F)F)c(=O)[nH]c3=O)C[C@@H]2O)c1 [Compound 15, 2'-deoxy-5'-O-(3-methylbenzyl)-5-trifluoromethyluridine]",41,24,1.71,–,–,–,–
"Cc1cccc(CO[C@H]2C[C@H](n3cc(C(F)(F)F)c(=O)[nH]c3=O)O[C@@H]2CO)c1 [Compound 16, 2'-deoxy-3'-O-(3-methylbenzyl)-5trifluoromethyluridine]",45,31,1.45,–,–,–,–
COc1ccc(COC[C@H]2O[C@@H](n3cc(C(F)(F)F)c(=O)[nH]c3=O)C[C@@H]2O)cc1 [Compound 17],51,45,1.13,–,–,–,–
"COc1ccc(CO[C@H]2C[C@H](n3cc(C(F)(F)F)c(=O)[nH]c3=O)O[C@@H]2CO)cc1 [Compound 18, 2'-deoxy-3'-O-(4-methoxybenzyl)-5-trifluoromethyluridine]",60,52,1.15,–,–,–,–
"O=c1c(C(F)(F)F)cn([C@H]2C[C@H](O)[C@@H](COCc3ccccc3)O2)c(=O)n1C1CCCO1 (stereo partly shown) [Compound 21, 3-(2-tetrahydrofuranyl)-2'-deoxy-5'-O-benzyl-5-trifluoromethyluridine]",30,22,1.36,–,–,–,–
"CCOC[C@H]1O[C@@H](n2cc(C(F)(F)F)c(=O)n(C(=O)c3ccccc3)c2=O)C[C@@H]1O [Compound 24, 3-benzoyl-2'-deoxy-5'-O-ethyl-5-trifluoromethyluridine]",–,–,–,36,26,1.38,–
"CCO[C@H]1C[C@H](n2cc(C(F)(F)F)c(=O)n(C(=O)c3ccccc3)c2=O)O[C@@H]1CO [Compound 25, 3-benzoyl-2'-deoxy-3'-O-ethyl-5-trifluoromethyluridine]",–,–,–,31,38,0.82,–
CCCCOC[C@H]1O[C@@H](n2cc(C(F)(F)F)c(=O)n(C(=O)c3ccccc3)c2=O)C[C@@H]1O [Compound 26],–,–,–,74,50,1.48,–
"O=C(c1ccccc1)n1c(=O)c(C(F)(F)F)cn([C@H]2C[C@H](O)[C@@H](COCc3ccccc3)O2)c1=O [Compound 27, 3-benzoyl-5'-O-benzyl-2'-deoxy-5-trifluoromethyluridine]",–,–,–,35,25,1.40,–
"O=C(c1ccccc1)n1c(=O)c(C(F)(F)F)cn([C@H]2C[C@H](OCc3ccccc3)[C@@H](CO)O2)c1=O [Compound 28, 3-benzoyl-3'-O-benzyl-2'-deoxy-5-trifluoromethyluridine]",–,–,–,35,25,1.40,–
COC[C@H]1O[C@@H](n2cc(C(F)(F)F)c(=O)[nH]c2=O)C[C@@H]1O [Compound 29],–,–,–,72,48,1.50,–
"CCOC[C@H]1O[C@@H](n2cc(C(F)(F)F)c(=O)[nH]c2=O)C[C@@H]1O [Compound 30, 2'-deoxy-5'-O-ethyl-5-trifluoromethyluridine]",–,–,–,32,19,1.68,–
"CCO[C@H]1C[C@H](n2cc(C(F)(F)F)c(=O)[nH]c2=O)O[C@@H]1CO [Compound 31, 2'-deoxy-3'-O-ethyl-5-trifluoromethyluridine]",–,–,–,30,20,1.50,–
"O=c1[nH]c(=O)n([C@H]2C[C@H](O)[C@@H](COCc3ccccc3)O2)cc1C(F)(F)F [Compound 32, 2'-deoxy-5'-O-benzyl-5-trifluoromethyluridine]",–,–,–,34,19,1.79,–
"O=c1[nH]c(=O)n([C@H]2C[C@H](OCc3ccccc3)[C@@H](CO)O2)cc1C(F)(F)F [Compound 33, 3'-O-benzyl-2'-deoxy-5-trifluoromethyluridine]",–,–,–,32,17,–,–
"CCOC[C@H]1O[C@@H](n2cc(F)c(=O)n(C(=O)c3ccccc3)c2=O)C[C@@H]1O [Compound 35, 3-benzoyl-2'-deoxy-5'-O-ethyl-5-fluorouridine]",–,–,–,–,–,–,TD50 at 240 h ([1]; Table 1-c): 70 mg/kg; Antitumor activity value (A) Administration amount of test compound at which tumor enhancement is inhibited by 50% compared with that of control group ([2]; Table 1-c): 51 mg/kg/day; Therapeutic index (C) = (B)/(A) ([3]; Table 1-c): 1.37
CCOC[C@H]1O[C@@H](n2cc(F)c(=O)[nH]c2=O)C[C@@H]1O [Compound 39],–,–,–,–,–,–,TD50 at 240 h ([1]; Table 1-c): 67 mg/kg; Antitumor activity value (A) Administration amount of test compound at which tumor enhancement is inhibited by 50% compared with that of control group ([2]; Table 1-c): 28 mg/kg/day; Therapeutic index (C) = (B)/(A) ([3]; Table 1-c): 2.39
"O=c1[nH]c(=O)n([C@H]2C[C@H](OCc3ccccc3)[C@@H](CO)O2)cc1F [Compound 40, 2'-deoxy-3'-O-benzyl-5-fluorouridine]",–,–,–,–,–,–,TD50 at 240 h ([1]; Table 1-c): 35 mg/kg; Antitumor activity value (A) Administration amount of test compound at which tumor enhancement is inhibited by 50% compared with that of control group ([2]; Table 1-c): 17 mg/kg/day
O=c1[nH]c(=O)n([C@H]2C[C@H](O)[C@@H](COCc3ccccc3)O2)cc1F [Compound 41],–,–,–,–,–,–,TD50 at 240 h ([1]; Table 1-c): 30 mg/kg; Antitumor activity value (A) Administration amount of test compound at which tumor enhancement is inhibited by 50% compared with that of control group ([2]; Table 1-c): 13 mg/kg/day; Therapeutic index (C) = (B)/(A) ([3]; Table 1-c): 2.31
